From patent US20260028354A1, “TETRAHYDRONAPHTHALENE DERIVATIVES AS ESTROGEN RECEPTOR DEGRADERS” (REGENT OF THE UNIVERSITY OF MICHIGAN, priority 2022, published 2026)
Where two headings read alike, the source gives them in different places.

Key:
[1] = Western blot analysis for "B" compounds; format: cell-based; details: read-out: Traditional Western Degradation Potency (DC50)
In short: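 Target protein levels given as relative mean band intensity over GAPDH from scanned immunoblots. Lysates of treated cells in RIPA buffer, equalized by BCA, separated on 10% gels and transferred to PVDF.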

[2] = Cell growth assay (WST-8) for "B" compounds; format: cell-based; details: read-out: Cell growth Inhibition in T47D cell line IC50
Method: Cell Growth Assay. The cells were seeded at 1500/well in 96 well plates overnight. One day after the seeding, they were treated with indicated doses of compounds respectively, 4 days after the compound treatment, 10% WST-8 reagent was added to the culture medium and incubate in a CO2 incubator at 37° C. for 2.5 hours. Before reading, the plate was mixed gently on an orbital shaker for one minute to ensure homogeneous distribution of color. The absorbance was measured of each sample using a microplate reader at a wavelength of 450 nm. The relative absorbance was calculated against the vehicle control from three individually repeats.

Compound | DC50 [1] [µM] | IC50 ([2]; T47D, T47D cell line) [µM] | IC50 ([2]; T47D cell line) [µM] | IC50 ([2]; T47D) [µM]
O=C1CCC(N2C(=O)c3cc4c(cc3C2=O)CCN(CC(=O)N2CCC3(CC2)CCN(c2ccc([C@@H]5c6ccc(O)cc6CC[C@@H]5c5ccc(F)cc5)cc2)CC3)CC4)C(=O)N1 (stereo partly drawn) [Compound B52, 2-(2,6-dioxopiperidin-3-yl)-7-(2-(9-(4-((1R,2S)-2-(4-fluorophenyl)-6-hydroxy-1,2,3,4-tetrahydronaphthalen-1-yl)phenyl)-3,9-diazaspiro[5.5]undecan-3-yl)-2-oxoethyl)-6,7,8,9-tetrahydroazepino[4,5-f]isoindole-1,3(2H,5H)-dione] | > 0.1 | 0.001 to 0.01 | – | –
O=C1CCC(N2C(=O)c3cc4c(cc3C2=O)CN(CC2CCN(C(=O)C3CCN(c5ccc([C@@H]6c7ccc(O)cc7CC[C@@H]6c6ccccc6)cc5)CC3)CC2)C4)C(=O)N1 (stereo partly drawn) [Compound B56, 2-(2,6-dioxopiperidin-3-yl)-6-((1-(1-(4-((1R,2S)-6-hydroxy-2-phenyl-1,2,3,4-tetrahydronaphthalen-1-yl)phenyl)piperidine-4-carbonyl)piperidin-4-yl)methyl)-6,7-dihydropyrrolo[3,4-f]isoindole-1,3(2H,5H)-dione] | 0.01 to 0.1 | 0.001 to 0.01 | – | –
O=C1CCC(N2C(=O)c3cc4c(cc3C2=O)CN(CC(=O)N2CC3(CCN(c5ccc([C@@H]6c7ccc(O)cc7CC[C@@H]6c6ccccc6)cc5)CC3)C2)C4)C(=O)N1 (stereo partly drawn) [Compound B28, 2-(2,6-dioxopiperidin-3-yl)-6-(2-(7-(4-((1R,2S)-6-hydroxy-2-phenyl-1,2,3,4-tetrahydronaphthalen-1-yl)phenyl)-2,7-diazaspiro[3.5]nonan-2-yl)-2-oxoethyl)-6,7-dihydropyrrolo[3,4-f]isoindole-1,3(2H,5H)-dione] | < 0.01 | – | 0.001 to 0.01 | –
O=C1CCC(N2C(=O)c3cc4c(cc3C2=O)CN(CC(=O)N2CCC3(CC2)CCN(c2ccc([C@@H]5c6ccc(O)cc6CC[C@@H]5C5CCC(F)(F)CC5)cc2)CC3)C4)C(=O)N1 (mixture of isomers) [Compound B48, 6-(2-(9-(4-((1R,2R)-2-(4,4-difluorocyclohexyl)-6-hydroxy-1,2,3,4-tetrahydronaphthalen-1-yl)phenyl)-3,9-diazaspiro[5.5]undecan-3-yl)-2-oxoethyl)-2-(2,6-dioxopiperidin-3-yl)-6,7-dihydropyrrolo[3,4-f]isoindole-1,3(2H,5H)-dione] | 0.01 to 0.1 | 0.001 to 0.01 | – | –
O=C1CCC(N2C(=O)c3cc4c(cc3C2=O)CN(CC(=O)N2CC3(CCN(c5ccc([C@@H]6c7ccc(O)cc7CC[C@@H]6c6ccccc6)cc5)CC3)C2)C4)C(=O)N1 (mixture of isomers) [Compound B5, 2-(2,6-dioxopiperidin-3-yl)-6-(2-(7-(4-((1R,2S)-6-hydroxy-2-phenyl-1,2,3,4-tetrahydronaphthalen-1-yl)phenyl)-2,7-diazaspiro[3.5]nonan-2-yl)-2-oxoethyl)-6,7-dihydropyrrolo[3,4-f]isoindole-1,3(2H,5H)-dione] | < 0.01 | – | > 0.01 | –
O=C1CCC(N2C(=O)c3cc4c(cc3C2=O)CN(CC(=O)N2CCC3(CC2)CCN(c2ccc([C@H]5c6ccc7[nH]ncc7c6CC[C@H]5c5ccccc5)cc2)CC3)C4)C(=O)N1 (stereo partly drawn) [Compound B138, 2-(2,6-dioxopiperidin-3-yl)-6-(2-oxo-2-(9-(4-((6S,7R)-7-phenyl-6,7,8,9-tetrahydro-3H-benzo[e]indazol-6-yl)phenyl)-3,9-diazaspiro[5.5]undecan-3-yl)ethyl)-6,7-dihydropyrrolo[3,4-f]isoindole-1,3(2H,5H)-dione] | > 0.1 | 0.001 to 0.01 | – | –
C[C@H]1CC2(CCN(C(=O)CN3Cc4cc5c(cc4C3)C(=O)N(C3CCC(=O)NC3=O)C5=O)CC2)CN1c1ccc([C@@H]2c3ccc(O)cc3CC[C@@H]2c2ccccc2)cc1 (mixture of isomers) [Compound B24, 2-(2,6-dioxopiperidin-3-yl)-6-(2-((S)-2-(4-((1R,2S)-6-hydroxy-2-phenyl-1,2,3,4-tetrahydronaphthalen-1-yl)phenyl)-3-methyl-2,8-diazaspiro[4.5]decan-8-yl)-2-oxoethyl)-6,7-dihydropyrrolo[3,4-f]isoindole-1,3(2H,5H)-dione] | 0.01 to 0.1 | > 0.01 | – | –
O=C1CCC(N2C(=O)c3cc4c(cc3C2=O)CN(CC(=O)N2CCC3(CC2)CCN(c2ccc([C@@H]5c6ccc(O)cc6CC[C@@H]5c5ccccc5)cc2)CC3)C4)C(=O)N1 (stereo partly drawn) [Compound B133, 2-(2,6-dioxopiperidin-3-yl)-6-(2-(9-(4-((1R,2S)-6-hydroxy-2-phenyl-1,2,3,4-tetrahydronaphthalen-1-yl)phenyl)-3,9-diazaspiro[5.5]undecan-3-yl)-2-oxoethyl)-6,7-dihydropyrrolo[3,4-f]isoindole-1,3(2H,5H)-dione] | 0.01 to 0.1 | – | 0.001 to 0.01 | –
O=C1CCC(N2C(=O)c3cc4c(cc3C2=O)CN(CC(=O)N2CC3(CCN(c5ccc([C@@H]6c7ccc(O)cc7CC[C@@H]6c6ccccc6)c(F)c5)CC3)C2)C4)C(=O)N1 (mixture of isomers) [Compound B44, 2-(2,6-dioxopiperidin-3-yl)-6-(2-(7-(3-fluoro-4-((1S,2S)-6-hydroxy-2-phenyl-1,2,3,4-tetrahydronaphthalen-1-yl)phenyl)-2,7-diazaspiro[3.5]nonan-2-yl)-2-oxoethyl)-6,7-dihydropyrrolo[3,4-f]isoindole-1,3(2H,5H)-dione] | 0.01 to 0.1 | > 0.01 | – | –
O=C1CCC(N2C(=O)c3cc4c(cc3C2=O)CN(C(=O)C2CCN(CC3CCN(c5ccc([C@@H]6c7ccc(O)cc7CC[C@@H]6c6ccccc6)cc5)CC3)CC2)C4)C(=O)N1 (stereo partly drawn) [Compound B57, 2-(2,6-dioxopiperidin-3-yl)-6-(1-((1-(4-((1R,2S)-6-hydroxy-2-phenyl-1,2,3,4-tetrahydronaphthalen-1-yl)phenyl)piperidin-4-yl)methyl)piperidine-4-carbonyl)-6,7-dihydropyrrolo[3,4-f]isoindole-1,3(2H,5H)-dione] | > 0.1 | 0.001 to 0.01 | – | –
COc1c2c(cc3c1C(=O)N(C1CCC(=O)NC1=O)C3=O)CN(CC(=O)N1CCC3(CC1)CCN(c1ccc([C@@H]4c5ccc(O)cc5CC[C@@H]4c4ccccc4)cc1)CC3)C2 (stereo partly drawn) [Compound B136, 2-(2,6-dioxopiperidin-3-yl)-6-(2-(9-(4-((1R,2S)-6-hydroxy-2-phenyl-1,2,3,4-tetrahydronaphthalen-1-yl)phenyl)-3,9-diazaspiro[5.5]undecan-3-yl)-2-oxoethyl)-4-methoxy-6,7-dihydropyrrolo[3,4-f]isoindole-1,3(2H,5H)-dione] | 0.01 to 0.1 | 0.001 to 0.01 | – | –
O=C1CCC(N2Cc3c(ccc4c3OC[C@H]3CN(C(=O)CN5CCN(c6ccc([C@@H]7c8ccc(O)cc8CC[C@@H]7c7ccccc7)cc6)CC5)CCN43)C2=O)C(=O)N1 (stereo partly drawn) [Compound B249, 3-((R)-7-(2-(4-(4-((1R,2S)-6-hydroxy-2-phenyl-1,2,3,4-tetrahydronaphthalen-1-yl)phenyl)piperazin-1-yl)acetyl)-1-oxo-1,3,5,5a,6,7,8,9-octahydro-2H-pyrazino[1′,2′:4,5][1,4]oxazino[2,3-e]isoindol-2-yl)piperidine-2,6-dione] | – | – | – | < 0.001
